Test results as given in patent US20240279240A1, “HETEROCYCLIC DERIVATIVES AS JANUS KINASE INHIBITORS” (CHIESI FARMACEUTICI S.P.A., priority 2021, published 2024).

Columns and labels:
[1] = target: JAK 2 (Homo sapiens, UniProt O60674); experiment: Biochemical potency on JAK2, TR-FRET LANCE Ultra kinase assay (examples 1-99); details: ATP at Km (0.7 μM), read-out: JAK2 inhibitory activity (pIC50 class) (converted)
Procedure, shortened: (§1)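 LANCE Ultra TR-FRET with ULight-JAK-1 (Tyr1023) peptide at 30/50/20/10 nM and ATP (~Km) at 20/0.7/0.2/12 μM for JAK1/JAK2/JAK3/TYK2; enzymes 0.15/0.083/0.025/0.144 ng/μL. 1.5 h at r.t., EDTA stop, Eu-anti-phosphotyrosine read. 11-point 5-fold series from 20 μM; IC50 by variable-slope fit.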

[2] = target: T1, JAK 3 (Homo sapiens, UniProt P52333); experiment: Biochemical potency on JAK3, TR-FRET LANCE Ultra kinase assay (examples 1-99); details: ATP at Km (0.2 μM), read-out: JAK3 inhibitory activity (pIC50 class) (converted)
T1 sequence (P52333 1-1124): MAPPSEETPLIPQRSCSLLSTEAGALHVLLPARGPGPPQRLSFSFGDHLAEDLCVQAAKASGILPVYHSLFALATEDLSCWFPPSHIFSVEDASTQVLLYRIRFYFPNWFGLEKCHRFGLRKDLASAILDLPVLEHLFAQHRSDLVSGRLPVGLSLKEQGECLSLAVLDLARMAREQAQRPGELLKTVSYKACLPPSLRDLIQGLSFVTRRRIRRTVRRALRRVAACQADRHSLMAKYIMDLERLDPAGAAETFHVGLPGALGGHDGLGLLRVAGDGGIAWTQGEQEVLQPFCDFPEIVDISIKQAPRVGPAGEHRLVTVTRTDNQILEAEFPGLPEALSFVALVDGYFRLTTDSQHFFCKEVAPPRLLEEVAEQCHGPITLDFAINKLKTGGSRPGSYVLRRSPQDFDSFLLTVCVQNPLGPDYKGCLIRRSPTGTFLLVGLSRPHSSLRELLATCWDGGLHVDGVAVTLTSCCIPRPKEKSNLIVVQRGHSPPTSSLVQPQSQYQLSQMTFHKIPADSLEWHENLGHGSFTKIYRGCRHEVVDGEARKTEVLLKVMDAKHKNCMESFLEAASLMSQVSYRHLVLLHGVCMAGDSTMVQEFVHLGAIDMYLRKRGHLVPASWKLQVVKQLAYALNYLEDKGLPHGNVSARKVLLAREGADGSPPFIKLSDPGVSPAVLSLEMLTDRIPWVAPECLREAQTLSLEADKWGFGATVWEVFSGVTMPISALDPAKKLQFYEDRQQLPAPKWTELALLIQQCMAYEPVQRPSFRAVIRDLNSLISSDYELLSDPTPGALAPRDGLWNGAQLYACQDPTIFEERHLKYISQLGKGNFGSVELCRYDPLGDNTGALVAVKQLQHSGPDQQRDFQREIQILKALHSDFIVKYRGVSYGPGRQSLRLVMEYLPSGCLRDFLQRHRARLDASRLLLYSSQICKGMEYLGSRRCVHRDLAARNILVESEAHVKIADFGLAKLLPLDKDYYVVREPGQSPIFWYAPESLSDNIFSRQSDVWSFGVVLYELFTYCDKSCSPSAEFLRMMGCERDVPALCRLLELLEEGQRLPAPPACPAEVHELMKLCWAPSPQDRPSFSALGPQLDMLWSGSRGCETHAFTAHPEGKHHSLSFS
Procedure, shortened: as §1

[3] = target: TYK2 (Homo sapiens, UniProt P29597); experiment: Biochemical potency on Tyk2, TR-FRET LANCE Ultra kinase assay (examples 1-99); details: ATP at Km (12 μM), read-out: Tyk2 inhibitory activity (pIC50 class) (converted)
Chain of TYK2 (P29597 whole entry): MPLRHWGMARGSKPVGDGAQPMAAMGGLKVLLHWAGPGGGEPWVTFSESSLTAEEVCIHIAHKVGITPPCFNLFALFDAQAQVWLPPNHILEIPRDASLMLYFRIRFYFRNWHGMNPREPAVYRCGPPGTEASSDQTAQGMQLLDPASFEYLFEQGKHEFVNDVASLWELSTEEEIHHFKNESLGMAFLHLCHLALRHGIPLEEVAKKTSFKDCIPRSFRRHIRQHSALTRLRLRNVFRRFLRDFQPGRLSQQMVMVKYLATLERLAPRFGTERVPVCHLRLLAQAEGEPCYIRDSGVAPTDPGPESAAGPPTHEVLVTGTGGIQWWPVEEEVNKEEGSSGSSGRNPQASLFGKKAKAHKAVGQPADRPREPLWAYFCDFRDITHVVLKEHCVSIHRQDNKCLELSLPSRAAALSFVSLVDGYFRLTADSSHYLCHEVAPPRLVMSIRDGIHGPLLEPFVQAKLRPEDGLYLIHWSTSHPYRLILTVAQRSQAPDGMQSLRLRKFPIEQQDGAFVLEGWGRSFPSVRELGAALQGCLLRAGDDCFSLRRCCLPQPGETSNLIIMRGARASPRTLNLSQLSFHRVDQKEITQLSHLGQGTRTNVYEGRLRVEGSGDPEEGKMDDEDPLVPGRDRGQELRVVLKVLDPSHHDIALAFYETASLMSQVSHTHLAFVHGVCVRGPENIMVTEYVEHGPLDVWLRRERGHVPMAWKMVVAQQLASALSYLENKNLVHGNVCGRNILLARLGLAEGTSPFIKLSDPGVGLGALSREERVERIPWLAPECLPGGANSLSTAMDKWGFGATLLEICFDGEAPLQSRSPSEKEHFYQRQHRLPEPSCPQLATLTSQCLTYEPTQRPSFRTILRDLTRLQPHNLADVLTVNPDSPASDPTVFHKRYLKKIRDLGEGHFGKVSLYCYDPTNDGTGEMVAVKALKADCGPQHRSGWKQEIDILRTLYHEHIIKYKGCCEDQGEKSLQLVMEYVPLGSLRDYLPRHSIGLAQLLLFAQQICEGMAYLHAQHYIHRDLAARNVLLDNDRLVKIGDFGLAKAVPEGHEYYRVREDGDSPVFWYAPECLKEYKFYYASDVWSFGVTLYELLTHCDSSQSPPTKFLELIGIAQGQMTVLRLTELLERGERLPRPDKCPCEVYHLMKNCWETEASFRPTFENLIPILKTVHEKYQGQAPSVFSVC
Procedure, shortened: as §1

[4] = target: JAK 1 (Homo sapiens, UniProt P23458); experiment: Biochemical potency on JAK1, TR-FRET LANCE Ultra kinase assay (examples 1-99); details: ATP at Km (20 μM), read-out: JAK1 inhibitory activity (pIC50 class) (converted)
Chain of JAK 1 (P23458 whole entry): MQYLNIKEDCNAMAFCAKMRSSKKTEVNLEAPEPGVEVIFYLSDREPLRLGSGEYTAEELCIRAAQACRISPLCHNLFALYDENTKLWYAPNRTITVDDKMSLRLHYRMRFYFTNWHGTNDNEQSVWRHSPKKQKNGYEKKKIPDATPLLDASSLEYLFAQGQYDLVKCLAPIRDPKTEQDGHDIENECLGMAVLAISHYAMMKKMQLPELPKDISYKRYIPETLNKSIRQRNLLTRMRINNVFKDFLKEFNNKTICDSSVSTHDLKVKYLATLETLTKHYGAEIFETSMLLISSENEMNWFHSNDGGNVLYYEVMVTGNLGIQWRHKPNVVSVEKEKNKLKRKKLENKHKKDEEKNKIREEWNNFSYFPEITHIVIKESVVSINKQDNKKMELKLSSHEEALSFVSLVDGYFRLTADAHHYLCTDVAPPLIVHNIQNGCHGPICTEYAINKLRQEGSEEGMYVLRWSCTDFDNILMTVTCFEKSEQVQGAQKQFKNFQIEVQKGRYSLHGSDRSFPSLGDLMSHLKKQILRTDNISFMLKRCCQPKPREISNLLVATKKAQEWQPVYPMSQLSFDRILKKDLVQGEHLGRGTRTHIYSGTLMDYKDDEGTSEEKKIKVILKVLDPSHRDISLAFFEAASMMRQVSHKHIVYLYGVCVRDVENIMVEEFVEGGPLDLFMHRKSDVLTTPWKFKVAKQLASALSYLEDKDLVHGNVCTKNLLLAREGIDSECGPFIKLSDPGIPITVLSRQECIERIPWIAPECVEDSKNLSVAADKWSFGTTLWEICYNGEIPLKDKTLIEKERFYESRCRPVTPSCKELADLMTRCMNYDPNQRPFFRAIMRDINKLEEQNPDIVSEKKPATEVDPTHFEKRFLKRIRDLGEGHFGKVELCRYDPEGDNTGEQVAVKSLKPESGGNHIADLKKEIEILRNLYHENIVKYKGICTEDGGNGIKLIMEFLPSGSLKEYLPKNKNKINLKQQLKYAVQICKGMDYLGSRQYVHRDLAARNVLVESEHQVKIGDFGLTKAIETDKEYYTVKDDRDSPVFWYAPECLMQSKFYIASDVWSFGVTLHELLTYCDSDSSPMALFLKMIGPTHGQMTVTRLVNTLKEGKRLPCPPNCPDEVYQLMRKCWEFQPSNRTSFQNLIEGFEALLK
Procedure, shortened: as §1

Chain of JAK 2 (O60674 whole entry): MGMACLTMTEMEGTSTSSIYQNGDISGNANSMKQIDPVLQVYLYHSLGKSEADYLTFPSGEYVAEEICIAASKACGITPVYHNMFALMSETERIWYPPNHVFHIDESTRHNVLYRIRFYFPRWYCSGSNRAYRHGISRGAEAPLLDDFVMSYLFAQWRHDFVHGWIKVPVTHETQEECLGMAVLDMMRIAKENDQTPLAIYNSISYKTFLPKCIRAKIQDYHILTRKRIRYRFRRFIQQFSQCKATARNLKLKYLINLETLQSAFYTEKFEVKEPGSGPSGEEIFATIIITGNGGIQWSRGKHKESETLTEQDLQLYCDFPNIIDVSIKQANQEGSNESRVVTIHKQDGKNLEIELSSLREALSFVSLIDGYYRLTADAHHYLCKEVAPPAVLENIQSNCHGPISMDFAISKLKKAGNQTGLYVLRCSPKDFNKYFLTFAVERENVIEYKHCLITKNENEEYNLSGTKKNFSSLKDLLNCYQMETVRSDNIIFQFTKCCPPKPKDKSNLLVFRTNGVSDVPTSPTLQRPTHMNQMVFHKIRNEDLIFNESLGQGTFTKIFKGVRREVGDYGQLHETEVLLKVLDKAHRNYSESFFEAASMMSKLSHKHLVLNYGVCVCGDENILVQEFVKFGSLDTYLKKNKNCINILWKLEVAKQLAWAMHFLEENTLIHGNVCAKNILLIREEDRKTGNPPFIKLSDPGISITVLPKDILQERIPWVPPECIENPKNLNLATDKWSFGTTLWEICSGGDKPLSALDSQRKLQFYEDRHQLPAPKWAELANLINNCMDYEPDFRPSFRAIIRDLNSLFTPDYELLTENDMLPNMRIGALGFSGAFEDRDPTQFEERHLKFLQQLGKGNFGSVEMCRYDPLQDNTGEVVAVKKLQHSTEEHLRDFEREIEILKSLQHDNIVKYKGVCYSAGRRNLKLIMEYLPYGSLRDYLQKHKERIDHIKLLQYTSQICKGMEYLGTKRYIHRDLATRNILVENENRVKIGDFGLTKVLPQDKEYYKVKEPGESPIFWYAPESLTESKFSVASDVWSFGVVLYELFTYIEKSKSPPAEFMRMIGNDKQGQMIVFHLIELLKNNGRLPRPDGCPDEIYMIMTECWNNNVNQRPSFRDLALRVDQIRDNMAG

| Structure (SMILES) | IC50 [1] [nM] | IC50 [2] [nM] | IC50 [3] [nM] | IC50 [4] [nM] |
| --- | --- | --- | --- | --- |
| CSc1ccc(OC(F)F)c(-n2nc(C)c3cnc(-c4cnn5cccnc45)cc32)c1 [Example 13, 1-(2-(difluoromethoxy)-5-(methylthio)phenyl)-3-methyl-6-(pyrazolo[1,5-a]pyrimidin-3-yl)-1H-pyrazolo[4,3-c]pyridine] | ≤ 5.01 | ≤ 5.01 | 5.01 to 50.1 | ≤ 5.01 |
| COc1ccc(Cl)cc1-n1ncc2c(NCCNC(C)=O)nc(-c3cnn4cccnc34)cc21 [Example 53, N-(2-((1-(5-chloro-2-methoxyphenyl)-6-(pyrazolo[1,5-a]pyrimidin-3-yl)-1H-pyrazolo[4,3-c]pyridin-4-yl)amino)ethyl)acetamide] | > 50.1 | > 50.1 | > 50.1 | 5.01 to 50.1 |
| COc1ccc(Cl)cc1-n1ncc2c(N)nc(-c3cnn4cccnc34)cc21 [Example 56, 1-(5-chloro-2-methoxyphenyl)-6-(pyrazolo[1,5-a]pyrimidin-3-yl)-1H-pyrazolo[4,3-c]pyridin-4-amine] | 5.01 to 50.1 | 5.01 to 50.1 | 5.01 to 50.1 | 5.01 to 50.1 |
| Cc1nn(-c2cc(Cl)ccc2CO)c2cc(-c3cnn4cccnc34)ncc12 [Example 62, (4-chloro-2-(3-methyl-6-(pyrazolo[1,5-a]pyrimidin-3-yl)-1H-pyrazolo[4,3-c]pyridin-1-yl)phenyl)methanol] | 5.01 to 50.1 | 5.01 to 50.1 | > 50.1 | > 50.1 |
| COc1ccc(NS(C)(=O)=O)cc1-n1nc(NCCN(C)C)c2cnc(-c3cnn4cccnc34)cc21 [Example 86, N-(3-(3-((2-(dimethylamino)ethyl)amino)-6-(pyrazolo[1,5-a]pyrimidin-3-yl)-1H-pyrazolo[4,3-c]pyridin-1-yl)-4-methoxyphenyl)methanesulfonamide] | 5.01 to 50.1 | 5.01 to 50.1 | > 50.1 | > 50.1 |
| COc1ccc(Cl)cc1-n1nc(C)c2cnc(-c3cnn4cccnc34)cc21 [Example 2, 1-(5-chloro-2-methoxyphenyl)-3-methyl-6-(pyrazolo[1,5-a]pyrimidin-3-yl)-1H-pyrazolo[4,3-c]pyridine] | ≤ 5.01 | 5.01 to 50.1 | 5.01 to 50.1 | ≤ 5.01 |
| COc1cnc(Cl)cc1-n1nc(C)c2cnc(-c3cnn4cccnc34)cc21 [Example 61, 1-(2-chloro-5-methoxypyridin-4-yl)-3-methyl-6-(pyrazolo[1,5-a]pyrimidin-3-yl)-1H-pyrazolo[4,3-c]pyridine] | 5.01 to 50.1 | 5.01 to 50.1 | > 50.1 | 5.01 to 50.1 |
| COc1ccc(Cl)cc1-n1ncc2c(N(C)C)nc(-c3cnn4cccnc34)cc21 [Example 51, 1-(5-chloro-2-methoxyphenyl)-N,N-dimethyl-6-(pyrazolo[1,5-a]pyrimidin-3-yl)-1H-pyrazolo[4,3-c]pyridin-4-amine] | 5.01 to 50.1 | 5.01 to 50.1 | > 50.1 | 5.01 to 50.1 |
| CSc1ccc(OC(F)F)c(-n2nc(NCCCN(C)C)c3cnc(-c4cnn5cccnc45)cc32)c1 [Example 46, N1-(1-(2-(difluoromethoxy)-5-(methylthio)phenyl)-6-(pyrazolo[1,5-a]pyrimidin-3-yl)-1H-pyrazolo[4,3-c]pyridin-3-yl)-N3,N3-dimethylpropane-1,3-diamine] | ≤ 5.01 | ≤ 5.01 | 5.01 to 50.1 | 5.01 to 50.1 |
| COc1ccc(C(F)F)cc1-n1nc(C)c2cnc(-c3cnn4cccnc34)cc21 [Example 3, 1-(5-(difluoromethyl)-2-methoxyphenyl)-3-methyl-6-(pyrazolo[1,5-a]pyrimidin-3-yl)-1H-pyrazolo[4,3-c]pyridine] | ≤ 5.01 | 5.01 to 50.1 | 5.01 to 50.1 | 5.01 to 50.1 |
| COc1ccc(S(=O)(=O)NCCO)cc1-n1nc(C)c2cnc(Nc3ncc[nH]c3=O)cc21 [Example 92, N-(2-hydroxyethyl)-4-methoxy-3-(3-methyl-6-((3-oxo-3,4-dihydropyrazin-2-yl)amino)-1H-pyrazolo[4,3-c]pyridin-1-yl)benzenesulfonamide] | ≤ 5.01 | ≤ 5.01 | > 50.1 | 5.01 to 50.1 |
| Cc1nn(-c2cc(SCC(=O)NCCO)ccc2OC(F)F)c2cc(-c3cnn4cccnc34)ncc12 [Example 69, 2-((4-(difluoromethoxy)-3-(3-methyl-6-(pyrazolo[1,5-a]pyrimidin-3-yl)-1H-pyrazolo[4,3-c]pyridin-1-yl)phenyl)thio)-N-(2-hydroxyethyl)acetamide] | 5.01 to 50.1 | 5.01 to 50.1 | > 50.1 | 5.01 to 50.1 |
| NCc1nn(-c2cc(Cl)ccc2OC(F)F)c2cc(-c3cnn4cccnc34)ncc12 [Example 32, (1-(5-chloro-2-(difluoromethoxy)phenyl)-6-(pyrazolo[1,5-a]pyrimidin-3-yl)-1H-pyrazolo[4,3-c]pyridin-3-yl)methanamine] | ≤ 5.01 | 5.01 to 50.1 | 5.01 to 50.1 | 5.01 to 50.1 |
| COCCS(=O)(=O)c1ccc(OC(F)F)c(-n2nc(C)c3cnc(Nc4ncc[nH]c4=O)cc32)c1 [Example 95, 3-((1-(2-(difluoromethoxy)-5-((2-methoxyethyl)sulfonyl)phenyl)-3-methyl-1H-pyrazolo[4,3-c]pyridin-6-yl)amino)pyrazin-2(1H)-one] | ≤ 5.01 | ≤ 5.01 | 5.01 to 50.1 | 5.01 to 50.1 |
| Cc1nn(-c2cc(S(C)(=O)=O)ccc2OC(F)F)c2cc(-c3cnn4cccnc34)ncc12 [Example 26, 1-(2-(difluoromethoxy)-5-(methylsulfonyl)phenyl)-3-methyl-6-(pyrazolo[1,5-a]pyrimidin-3-yl)-1H-pyrazolo[4,3-c]pyridine] | ≤ 5.01 | ≤ 5.01 | 5.01 to 50.1 | ≤ 5.01 |
| COc1ccc(Cl)cc1-n1nc(C(=O)N[C@H]2C[C@@H](O)C2)c2cnc(-c3cnn4cccnc34)cc21 [Example 34, 1-(5-chloro-2-methoxyphenyl)-N-((1s,3s)-3-hydroxycyclobutyl)-6-(pyrazolo[1,5-a]pyrimidin-3-yl)-1H-pyrazolo[4,3-c]pyridine-3-carboxamide] | 5.01 to 50.1 | 5.01 to 50.1 | > 50.1 | 5.01 to 50.1 |
| COc1ccc(S(=O)(=O)NCC2CN(C)C2)cc1-n1nc(C)c2cnc(-c3cnn4cccnc34)cc21 [Example 17, 4-methoxy-3-(3-methyl-6-(pyrazolo[1,5-a]pyrimidin-3-yl)-1H-pyrazolo[4,3-c]pyridin-1-yl)-N-((1-methylazetidin-3-yl)methyl)benzenesulfonamide] | 5.01 to 50.1 | > 50.1 | > 50.1 | 5.01 to 50.1 |
| COc1ccc(Cl)cc1-n1nc(N(C)C)c2cnc(-c3cnn4cccnc34)cc21 [Example 42, 1-(5-chloro-2-methoxyphenyl)-N,N-dimethyl-6-(pyrazolo[1,5-a]pyrimidin-3-yl)-1H-pyrazolo[4,3-c]pyridin-3-amine] | 5.01 to 50.1 | 5.01 to 50.1 | 5.01 to 50.1 | 5.01 to 50.1 |
| N[C@H]1C[C@@H](NC(=O)c2nn(-c3cc(Cl)ccc3OC(F)F)c3cc(-c4cnn5cccnc45)ncc23)C1 [Example 81, N-((1s,3s)-3-aminocyclobutyl)-1-(5-chloro-2-(difluoromethoxy)phenyl)-6-(pyrazolo[1,5-a]pyrimidin-3-yl)-1H-pyrazolo[4,3-c]pyridine-3-carboxamide] | > 50.1 | 5.01 to 50.1 | > 50.1 | 5.01 to 50.1 |
